The record followed here is US9062026B2, “Fused pyrimidines and substituted quinazolines as inhibitors of p97” (Cleave Biosciences, Inc., priority 2012, dated 2015).

Molecules are shown by their SMILES. Where only a bound is given, the exact number is not on record here.

What is called IC50 is the concentration needed to halve the response being measured.

p97, sequence (P55072 whole entry): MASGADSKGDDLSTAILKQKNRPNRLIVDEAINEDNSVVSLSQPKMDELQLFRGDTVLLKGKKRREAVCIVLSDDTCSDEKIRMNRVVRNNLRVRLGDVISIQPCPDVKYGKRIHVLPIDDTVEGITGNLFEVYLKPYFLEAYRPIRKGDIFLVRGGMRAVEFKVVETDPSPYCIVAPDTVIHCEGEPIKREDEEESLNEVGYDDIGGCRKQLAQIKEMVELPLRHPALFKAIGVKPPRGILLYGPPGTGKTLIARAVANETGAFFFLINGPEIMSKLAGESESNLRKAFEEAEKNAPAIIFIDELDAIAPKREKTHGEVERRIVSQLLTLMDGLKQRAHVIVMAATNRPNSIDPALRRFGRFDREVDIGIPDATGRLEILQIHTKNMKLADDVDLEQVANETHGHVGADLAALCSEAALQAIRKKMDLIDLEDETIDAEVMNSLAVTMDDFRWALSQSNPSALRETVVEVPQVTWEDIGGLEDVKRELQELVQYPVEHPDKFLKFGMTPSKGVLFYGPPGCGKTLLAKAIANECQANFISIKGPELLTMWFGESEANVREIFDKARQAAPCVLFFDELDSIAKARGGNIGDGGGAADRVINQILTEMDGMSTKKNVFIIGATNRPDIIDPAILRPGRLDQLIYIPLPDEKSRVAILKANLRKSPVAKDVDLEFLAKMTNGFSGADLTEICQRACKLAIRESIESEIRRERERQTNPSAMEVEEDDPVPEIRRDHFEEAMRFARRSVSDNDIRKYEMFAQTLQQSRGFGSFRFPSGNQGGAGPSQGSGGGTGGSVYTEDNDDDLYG

One test has as its target p97 (Homo sapiens (Human), UniProt P55072). As to the kind of experiment: P97 ATPase biochem assay (ADP Glo). Format: biochemical. Particulars: 20 nM p97, 20 μM ATP, 37° C., 15 minutes; read-out: p97 biochem IC50. As for the experimental part: The ATPase assay is performed according the following protocol: Purified enzyme (20 nM p97), substrate (20 μM ATP) and a dose titration of compounds are mixed in buffer (50 mM TRIS pH 7.5, 20 mM MgCl2, 0.02% TX-100, 1 mM DTT, 0.2% (v/v) glycerol) and incubated at 37° C. for 15 minutes. The reaction is terminated and the level of product generated is measured using the ADP Glo Assay Kit (Promega, Madison Wis.). Plotting product generated versus compound concentration and using a four-parameter fit model generates an IC50 value for each compounds.
In general terms: In ADP-Glo the light output rises with the ADP produced.
Turning to `COc1cccc2c(NCc3ccccc3)nc(-n3c(C)nc(C)c3C)nc12`, the concentration for half-maximal inhibition (IC50) is less than 25 µM.

For `CCC1=NC(C)=C(C)C1c1nc(NCc2ccccc2)c2cccc(OC)c2n1` (stereo not drawn), the IC50 is less than 25 µM.

In the case of `COc1cccc2c(NCc3ccccc3)nc(CCc3ccccc3)nc12`, the IC50 was less than 25 µM.

As to `COc1cccc2c(NCc3ccccc3)nc(CCC(C)C)nc12`, the concentration for half-maximal inhibition (IC50) is less than 10 µM.

Take `COc1cccc2c(NCc3ccccc3)nc(N3CCOc4ccccc43)nc12`: the IC50 is less than 5 µM.

For `COc1cccc2c(NCc3ccccc3)nc(-n3c(N)nc4cccc(F)c43)nc12`, the IC50 is less than 10 µM.

Turning to `COc1cccc2c(NCc3ccccc3)nc(-n3c(C)nc4ccccc43)nc12`, the IC50 was less than 2 µM.

As to `COc1cccc2c(NCc3ccccc3)nc(-n3cnc4ccccc43)nc12`, the IC50 was less than 2 µM.

With `COc1cccc2c(NCc3ccccc3)nc(-n3c(OC)nc4ccccc43)nc12`, the IC50 was less than 2 µM.

`COc1cccc2c(NCc3ccccc3)nc(Nc3ccccn3)nc12`: the IC50 was less than 10 µM.

As for `COc1cccc2c(NCc3nccs3)nc(-n3c(N)nc4ccccc43)nc12`, the IC50 is less than 25 µM.

For `NCCOc1cccc2c(NCc3ccccc3)nc(-n3c(N)nc4ccccc43)nc12`, the 50% inhibitory concentration (IC50) is less than 2 µM.

For the compound `COCCOc1cccc2c(NCc3ccccc3)nc(-n3c(N)nc4ccccc43)nc12`, the IC50 was less than 2 µM.

As to `NC(=O)COc1cccc2c(NCc3ccccc3)nc(-n3c(N)nc4ccccc43)nc12`, the IC50 was less than 2 µM.

In the case of `COCc1cccc2c(NCc3ccccc3)nc(-n3c(N)nc4ccccc43)nc12`, the IC50 was less than 2 µM.

In the case of `Cc1cc2ccccc2n1-c1nc(NCc2ccccc2)c2cccc(CN)c2n1`, the IC50 is less than 2 µM.

Consider `CN(C)Cc1cccc2c(NCc3ccccc3)nc(-n3c(N)nc4ccccc43)nc12`, for which the IC50 is less than 25 µM.

Turning to `COc1nc2ccccc2n1-c1nc(NCc2ccccc2)c2ncsc2n1`, the IC50 was less than 2 µM.

Take `Nc1nc2ccccc2n1-c1nc(NCc2ccccc2)c2nc[nH]c2n1`: the IC50 is less than 5 µM.

`Nc1nc2ccccc2n1-c1nc2c(c(NCc3ccccc3)n1)CCC2`: the IC50 was less than 2 µM.

With `COCc1nc(-n2c(N)nc3ccccc32)nc(NCc2ccccc2)c1C`, the IC50 was less than 5 µM.

In the case of `COc1cccc2c(NCc3ccccc3)nc(Nc3ncc[nH]3)nc12`, the IC50 was less than 10 µM.

As to `CNc1nc2ccccc2n1-c1nc(NCc2ccccc2)c2cccc(OC)c2n1`, the IC50 was less than 2 µM.

For the compound `COc1cccc2c(NCc3ccccc3)nc(-n3c(N(C)C)nc4ccccc43)nc12`, the IC50 is less than 2 µM.

In the case of `COc1cccc2c(NCc3ccccc3)nc(-n3c(NC(C)=O)nc4ccccc43)nc12`, the half-maximal inhibitory concentration (IC50) is less than 5 µM.

Consider `COc1cccc2c(NCc3ccccc3)nc(-c3c(N)[nH]c4ccccc34)nc12`, for which the IC50 is less than 2 µM.

In the case of `COc1cccc2c(NCc3ccccc3)nc(N3c4ccccc4CC3C)nc12` (stereo not drawn), the IC50 was less than 5 µM.

Regarding `COc1cccc2c(NCc3ccccc3)nc(N(C(N)=O)c3ccccc3)nc12`, the IC50 was less than 5 µM.

With `COc1cccc2c(NCc3ccccc3)nc(N3C(=O)Cc4ccccc43)nc12`, the half-inhibitory concentration (IC50) was less than 2 µM.

As to `COc1cccc2c(NCc3ccco3)nc(-n3c(N)nc4ccccc43)nc12`, the IC50 is less than 5 µM.

For `COc1cccc2c(NCc3ccoc3)nc(-n3c(N)nc4ccccc43)nc12`, the IC50 was less than 5 µM.

In the case of `COc1cccc2c(NCc3ccccc3)nc(-n3c(=O)[nH]c4ccccc43)nc12`, the IC50 is less than 2 µM.

On to `COc1cccc2c(NCc3ccccc3)nc(-n3c(=O)n(C)c4ccccc43)nc12`, for which the half-maximal inhibitory concentration (IC50) was less than 5 µM.

As for `COc1cccc2c(NCc3ccccc3)nc(-n3c(CN)nc4sccc43)nc12`, the IC50 is less than 2 µM.

As for `COc1cccc2c(NCc3ccccc3)nc(-n3c(C)cc4ccccc43)nc12`, the IC50 was less than 2 µM.

Take `COc1cccc2c(NCc3ccccc3)nc(C(C)c3ccccc3)nc12` (stereo not drawn): the IC50 is less than 10 µM.

For the compound `COc1cccc2c(NCc3ccccc3)nc(C3NCc4ccccc43)nc12` (stereo not drawn), the IC50 was less than 5 µM.

As for `COc1cccc2c(NCc3ccccc3)nc(C3CNc4ccccc43)nc12` (stereo not drawn), the IC50 is less than 2 µM.

Take `COC1=Nc2ccccc2C1c1nc(NCc2ccc(F)cc2)c2cccc(OC)c2n1` (stereo not drawn): the IC50 was less than 2 µM.

Turning to `COc1nc2ccccc2n1-c1nc2c(c(NCc3ccccc3)n1)CNCC2`, the IC50 was less than 2 µM.

Take `Cc1cc2ccccc2n1-c1nc2c(c(NCc3ccccc3)n1)CNCC2`: the IC50 was less than 2 µM.

For `Cc1cc2ccccc2n1-c1nc2c(c(NCc3ccccc3)n1)CCNC2`, the IC50 was less than 2 µM.

Regarding `COc1nc2ccccc2n1-c1nc(NCc2ccccc2)c2c(n1)C(=O)NCC2`, the IC50 is less than 5 µM.

With `Cc1cc2ccccc2n1-c1nc2c(c(NCc3ccccc3)n1)CNC2`, the IC50 was less than 2 µM.

Turning to `COc1cccc2c(NCc3ccccc3)nc(C3c4ccccc4CN3C)nc12` (stereo not drawn), the IC50 was less than 10 µM.

Consider `COc1cccc2c(NCc3ccccc3)nc(-n3c(CN)cc4ccccc43)nc12`, for which the IC50 was less than 2 µM.

As for `COc1cccc2c(NCc3ccccc3)nc(-n3ccc4ccccc43)nc12`, the IC50 was less than 2 µM.

As for `COc1cccc2c(NCc3ccccc3)nc(-n3cc(C)c4ccccc43)nc12`, the IC50 was less than 10 µM.

For `COc1cccc2c(NCc3ccccc3)nc(-c3c(C)oc4ccccc34)nc12`, the IC50 was less than 2 µM.

As to `Cc1cc2ccccc2n1-c1nc(NCc2ccccc2)c2cccc(C(N)=O)c2n1`, the IC50 is less than 2 µM.

Take `Cc1cc2ccccc2n1-c1nc2c(c(NCc3ccccc3)n1)COC2`: the IC50 is less than 2 µM.

`Cc1cc2ccccc2n1-c1nc(NCc2ccccc2)c2cccc(C#N)c2n1`: the IC50 is less than 2 µM.

For the compound `Cc1cc2ccccc2n1-c1nc2c(c(NCc3ccccc3)n1)CCN(C(=O)OC(C)(C)C)C2`, the half-inhibitory concentration (IC50) was less than 2 µM.

For the compound `CC(=O)N1Cc2nc(-n3c(C)cc4ccccc43)nc(NCc3ccccc3)c2C1`, the IC50 was less than 2 µM.

Turning to `CC(=O)N1CCc2nc(-n3c(C)cc4ccccc43)nc(NCc3ccccc3)c2C1`, the IC50 is less than 2 µM.

Consider `CC(=O)N1CCc2c(nc(C3C(C)=Cc4ccccc43)nc2NCc2ccccc2)C1` (stereo not drawn), for which the IC50 was less than 2 µM.

Regarding `COc1cc2ccccc2n1-c1nc(NCc2ccccc2)c2c(n1)C(=O)N(C(=O)OC(C)(C)C)CC2`, the IC50 was less than 2 µM.

For `Cc1cc2ccccc2n1-c1nc2c(c(NCc3ccccc3)n1)CCCC2`, the IC50 is less than 2 µM.

With `CCc1cc2ccccc2n1-c1nc2c(c(NCc3ccccc3)n1)CCCC2`, the IC50 is less than 5 µM.

For `CC(N)c1cc2ccccc2n1-c1nc2c(c(NCc3ccccc3)n1)CCCC2` (stereo not drawn), the IC50 is less than 2 µM.

`COCCOc1cccc2c(NCc3ccccc3)nc(C3C(ON)=Nc4ccccc43)nc12` (stereo not drawn): the IC50 is less than 2 µM.

Regarding `C=CC(=O)NCc1cc2ccccc2n1-c1nc(NCc2ccccc2)c2cccc(OC)c2n1`, the IC50 was less than 2 µM.

In the case of `CCc1nc2ccccc2n1-c1nc(NCc2ccccc2)c2cccc(OC)c2n1`, the IC50 was less than 2 µM.

For `COCc1cc2ccccc2n1-c1nc2c(c(NCc3ccccc3)n1)CCCC2`, the concentration for half-maximal inhibition (IC50) was less than 2 µM.

For `CC(=O)C1CCc2c(nc(-n3c(CN)cc4ccccc43)nc2NCc2ccccc2)C1` (stereo not drawn), the IC50 is less than 2 µM.

With `CCN1CCc2c(nc(-n3c(CN)cc4ccccc43)nc2NCc2ccccc2)C1`, the IC50 was less than 2 µM.

On to `COC(=O)N1CCc2c(nc(-n3c(CN)cc4ccccc43)nc2NCc2ccccc2)C1`, for which the IC50 is less than 2 µM.

Regarding `NCc1cc2ccccc2n1-c1cc(NCc2ccccc2)c2c(n1)CN(C(N)=O)CC2`, the 50% inhibitory concentration (IC50) was less than 2 µM.

Turning to `CS(=O)(=O)N1CCc2c(nc(-n3c(CN)cc4ccccc43)nc2NCc2ccccc2)C1`, the IC50 was less than 2 µM.

Take `CNCCN1CCc2c(nc(-n3c(CN)cc4ccccc43)nc2NCc2ccccc2)C1`: the 50% inhibitory concentration (IC50) is less than 10 µM.

For `CNCC(=O)N1CCc2c(nc(-n3c(CN)cc4ccccc43)nc2NCc2ccccc2)C1`, the IC50 is less than 10 µM.

Still in this test, the particulars now being: read-out: p97 IC50.
For the compound `Cc1cc2c(C#N)cccc2n1-c1nc2c(c(NCc3ccccc3)n1)CCCC2` [1-[4-(benzylamino)-5,6,7,8-tetrahydroquinazolin-2-yl]-2-methyl-1H-indole-4-carbonitrile], the IC50 is less than 0.1 µM.

As to `COc1cc2c(C#N)cccc2n1-c1nc2c(c(NCc3ccccc3)n1)CNCC2` [1-[4-(benzylamino)-5H,6H,7H,8H-pyrido[4,3-d]pyrimidin-2-yl]-2-methoxy-1H-indole-4-carbonitrile], the IC50 is less than 0.3 µM.

For the compound `Cc1cc2c(C#N)cccc2n1-c1nc2c(c(NCc3ccccc3)n1)COCC2` [1-[4-(benzylamino)-5H,7H,8H-pyrano[4,3-d]pyrimidin-2-yl]-2-methyl-1H-indole-4-carbonitrile], the half-maximal inhibitory concentration (IC50) is less than 0.1 µM.

Take `COCC(=O)N1CCc2nc(-n3c(C)cc4c(C#N)cccc43)nc(NCc3ccccc3)c2C1` [1-[4-(benzylamino)-6-(2-methoxyacetyl)-5H,6H,7H,8H-pyrido[4,3-d]pyrimidin-2-yl]-2-methyl-1H-indole-4-carbonitrile]: the half-inhibitory concentration (IC50) is less than 0.03 µM.

As to `CCN1CCc2nc(-n3c(C)cc4c(C#N)cccc43)nc(NCc3ccccc3)c2C1` [1-[4-(benzylamino)-6-ethyl-5H,6H,7H,8H-pyrido[4,3-d]pyrimidin-2-yl]-2-methyl-1H-indole-4-carbonitrile], the half-inhibitory concentration (IC50) is less than 0.1 µM.

On to `COCCOc1cccc2c(NCc3ccccc3)nc(-n3c(OC)cc4c(C#N)cccc43)nc12` [1-[4-(benzylamino)-8-(2-methoxyethoxy)quinazolin-2-yl]-2-methoxy-1H-indole-4-carbonitrile], for which the IC50 is less than 0.1 µM.

With `COCCOc1cccc2c(NCc3ccccc3)nc(-n3c(C)cc4c(C#N)cccc43)nc12` [1-[4-(benzylamino)-8-(2-methoxyethoxy)quinazolin-2-yl]-2-methyl-1H-indole-4-carbonitrile], the IC50 was less than 0.03 µM.
